Test results: US5948628A, “Methods of screening for compounds which mimic galectin-1” (The Board of Regents of The University of Oklahoma, priority 1997, dated 1999)
pKd: −log10 of the molar value.

Legend:
[1] = target: T1, hamster galectin-1 mutant N-Gal-1 (monomeric; three hydrophobic N-terminal amino acids disrupted), SEQ ID NO:4 (Cricetulus griseus, UniProt P48538, A7S/C3S/L5Q/V6D); assay: Equilibrium dialysis binding of N-acetyllactosamine
T1 construct: made in house; host or cells: E. coli
Description: (§1) Specific mutations were created in the six N-terminal amino acids (SEQ ID NO:1) of hamster galectin-1, as indicated in FIG. 3 and as described in further detail in Cho and Cummings, Biochemistry, 35:13081, 1996, which is hereby incorporated by reference herein in its entirety. C2S-Gal-1 (SEQ ID NO:2) contains a single replacement of Cys-2 to Ser. V5D-Gal-1 (SEQ ID NO:3) contains a single mutation of Val-5 to Asp. N-Gal-1 (SEQ ID NO:4) contains disruptions of three hydrophobic amino acids at the N-terminus. We also made another mutant construct, termed N/C-Gal-1, which contained the amino terminal changes of N-Gal-1 in addition to multiple changes in specific hydrophobic amino acids at the C-terminus (data not shown). All mutants, except for C2S-Gal-1, behaved as monomers in size exclusion HPLC and native gel electrophoresis. C2S-Gal-1 was indistinguishable from the native lectin in its ability to undergo monomer-dimer equilibrium and in its carbohydrate-binding affinity. […] However, in equilibrium dialysis N-Gal-1 and V5D-Gal-1 bound N-acetyllactosamine with similar affinity (Kd ≈90 μM) to that of the C2S-Gal-1 and the native lectin. […] N/C-Gal-1 was non-functional.

[2] = target: T2, hamster galectin-1 mutant V5D-Gal-1 (Val-5 to Asp), SEQ ID NO:3 (Cricetulus griseus, UniProt P48538, V6D); assay: as above
T2 construct: made in house; host or cells: E. coli
Description: as §1

[3] = target: T3, hamster galectin-1 mutant C2S-Gal-1 (Cys-2 to Ser), SEQ ID NO:2 (Cricetulus griseus, UniProt P48538, C3S); assay: as above; conditions: stated only as similar affinity to the monomeric mutants
T3 construct: made in house; host or cells: E. coli
Description: as §1

[4] = target: hamster galectin-1, native lectin (N-terminus SEQ ID NO:1) (Cricetulus griseus, UniProt P48538); assay: as above; conditions: stated only as similar affinity to the monomeric mutants
Description: as §1

[5] = target: T4, recombinant galectin-1 (Cys at 2nd residue converted to Ser) (Cricetulus griseus, UniProt P48538, C3S); assay: Binding of biotinylated galectin-1 to activated neutrophils and desialylated HL-60 cells (flow cytometry); assay type: cell-based, hamster; conditions: 10 mM sugar; galectin-1 10 μg/ml; activated neutrophils, desialylated HL-60 cells
T4 construct: made in house; host or cells: E. coli
Description: Isolated neutrophils were activated by treatment with PMA and HL-60 cells were desialylated by treatment with neuraminidase. Heparinized blood was obtained from normal donors. Neutrophils were isolated by dextran sedimentation, hypotonic lysis, and density gradient centrifugation on HISTOPAQUE-1077 (Sigma), as described [G. A. Zimmerman, T. M. McIntyre, and S. M. Prescott, J. Clin. Invest., 76:2235, 1985]. Typically, the polymorphonuclear cells were >90% neutrophils by Wright-Giemsa staining and >90% CD16^+ as assessed by flow cytometry. Neutrophils were activated by treatment with phorbol myristate acetate (PMA) (Sigma) (0.5 μM) for 20 minutes at 37° C. in RPMI containing 20% FCS (0.5 ml). HL-60 cells were routinely maintained in RPMI containing 20% FCS. Desialylated HL-60 cells were prepared by treating 3×10^7 cells with Arthrobacter ureafaciens neuraminidase (Sigma) (100 mU) in 500 μl of RPMI containing 20% FCS for 1 hour at 37° C. […] The washed cells were incubated with FITC-streptavidin (1:100 dilution) (Sigma), washed once with PBS, and analyzed by flow cytometry. […] "Unstained" indicates fluorescence of either resting neutrophils or HL-60 cells incubated in the absence of either MAL or galectin-1. "Control" indicates fluorescence of either activated neutrophils or desialylated HL-60 cells incubated with galectin-1 in the presence of 10 mM lactose.

[6] = target: T4, recombinant galectin-1 (Cys at 2nd residue converted to Ser); assay: Galectin-1-induced apoptosis of activated neutrophils and desialylated HL-60 cells (annexin V staining); assay type: cell-based, hamster; conditions: galectin-1 10 μM; lactose 10 mM
Experimental: Resting or activated neutrophils (3×10^6 cells) were treated with galectin-1 (10 μM) in 0.5 ml of HBSS (lacking Ca^2+ /Mg^2+ and containing 0.5% human albumin) for 90 minutes at 37° C. in the presence or absence of 10 mM lactose. HL-60 cells and desialylated HL-60 cells (3×10^6 cells/0.5 ml) were treated with galectin-1 (10 μM) for 20 hours at 37° C. in the presence or absence of 10 mM lactose. At the end of the incubations all cells were treated with 10 mM lactose in PBS to disaggregate the cells. […]
Annexin V is a protein that recognizes phosphatidyl serine (PS) and is a convenient marker for apoptosis of neutrophils and other cells (S. J. Martin, C. P. Reutelingsperger, A. J. McGahon, J. A. Rader, R. C. van Schie, D. M. LaFace and D. R. Green DR, J. Exp. Med., 182:1545, 1995; C. H. Homburg, M. de Haas, A. E. von dem Borne, A. J. Verhoeven, C. P. Reutelingsperger and D. Roos, Blood, 85:532, 1995; I. Vermes, C. Haanen, H. Steffens-Nakken, and C. Reutelingsperger, J. Immunol. Methods, 184:39, 1995; Z. Darzynkiewicz, G. Juan, X. Li, W. Gorczyca, T. Murakami, and F. Traganos, Cytometry 27:1, 1997). […] Within 90 minutes following treatment with 10 μM galectin-1, 36% of the activated neutrophils undergo apoptosis, as determined by their staining with annexin V (FIG. 2A). […]

[7] = target: T4, recombinant galectin-1 (Cys at 2nd residue converted to Ser); assay: Cell agglutination by galectin-1; assay type: cell-based, hamster
Experimental: In all cases cell binding of galectin-1 to cells was inhibited by 10 mM lactose, a known inhibitor of galectin-1 (FIG. 1), but not by 10 mM maltose, an isomeric, non-inhibitory analog (data not shown). We noted that both activated neutrophils and desialylated HL-60 cells are strongly agglutinated by galectin-1, whereas resting neutrophils and HL-60 cells are not appreciably agglutinated, which further underscores the profound differences in surface phenotypes between resting and activated neutrophils.

T4 sequence (P48538 whole entry C3S): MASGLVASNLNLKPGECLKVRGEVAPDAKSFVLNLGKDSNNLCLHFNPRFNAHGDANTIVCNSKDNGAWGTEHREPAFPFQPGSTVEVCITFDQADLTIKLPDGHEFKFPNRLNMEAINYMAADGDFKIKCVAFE
Sequence of hamster galectin-1, native lectin (N-terminus SEQ ID NO:1) (P48538 2-135): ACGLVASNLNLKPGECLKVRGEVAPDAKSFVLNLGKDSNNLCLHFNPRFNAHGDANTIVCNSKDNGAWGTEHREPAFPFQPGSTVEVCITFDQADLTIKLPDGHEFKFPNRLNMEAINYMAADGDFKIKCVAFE
T3 sequence (P48538 whole entry C3S): as the sequence (P48538 whole entry C3S) above
T1 sequence (P48538 2-135 C3S/L5Q/V6D/A7S limits assumed): as the sequence (P48538 2-135) above, with C2S, L4Q, V5D, A6S counted along it
T2 sequence (P48538 whole entry V6D): as the sequence (P48538 whole entry C3S) above, with S3C, V6D counted along it

Row | pKd [1] | pKd [2] | pKd [3] | pKd [4] | Inhibition of cell binding of galectin-1 [5] | Inhibition of apoptosis-inducing activity of galectin-1 [6] | Inhibition of cell agglutinating activity of galectin-1 [7] | Structure (SMILES)
1 | ~4.05 | ~4.05 | ~4.05 | ~4.05 | – | – | – | CC(=O)N[C@H]1C(O)O[C@H](CO)[C@@H](O[C@@H]2O[C@H](CO)[C@H](O)[C@H](O)[C@H]2O)[C@@H]1O (some centres unmarked) [N-acetyllactosamine]
2 | – | – | – | – | non-inhibitory | – | – | OC[C@H]1O[C@H](O[C@H]2[C@H](O)[C@@H](O)[C@H](O)O[C@@H]2CO)[C@H](O)[C@@H](O)[C@@H]1O [maltose]
3 | – | – | – | – | inhibited | inhibited | inhibited | OC[C@H]1O[C@@H](O[C@H]2[C@H](O)[C@@H](O)C(O)O[C@@H]2CO)[C@H](O)[C@@H](O)[C@H]1O (some centres unmarked) [lactose]
